Experimental data taken from the supplement of paper PMC10307832.

What was measured:
Assay in all cases: relative viability (nuclei count vs DMSO), 5 days (fraction); higher = more cells survive
XMD14-99 + OSI-027 = compound: CN1CCN(CC1)C2=CC(=C(C=C2)NC3=NC(=C(S3)C(=O)C4=C(C=CC=C4Cl)Cl)N)OC [XMD14-99] + COc1cccc2cc(-c3nc([C@H]4CC[C@H](C(=O)O)CC4)n4ncnc(N)c34)[nH]c12 [OSI-027] (partner 0.5 µM)
Outline: (§1)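 Nuclei were stained with Hoechst during a one-step fixation (final 0.05% Triton X-100, 1% formaldehyde, 1 ug/ml Hoechst) carried out 5 days after dosing, then counted on 4× images. The cells, lung cancer lines in 1536-well plates, had been dosed by pin tool the day after seeding with one drug alone or a fixed anchor-drug dose plus five library-drug doses (not always all listed) in √10 steps. Relative viability is the nuclei count in treated wells divided by that in vehicle wells, and each value is the median of duplicate plates.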

AZD1208 + Luminespib = compound: N[C@@H]1CCCN(c2c(/C=C3\SC(=O)NC3=O)cccc2-c2ccccc2)C1 [AZD1208] + CCNC(=O)c1noc(-c2cc(C(C)C)c(O)cc2O)c1-c1ccc(CN2CCOCC2)cc1 [Luminespib] (partner 0.01 µM)
Outline: as §1

AZD1208 + Lapatinib = compound: N[C@@H]1CCCN(c2c(/C=C3\SC(=O)NC3=O)cccc2-c2ccccc2)C1 [AZD1208] + CS(=O)(=O)CCNCc1ccc(-c2ccc3ncnc(Nc4ccc(OCc5cccc(F)c5)c(Cl)c4)c3c2)o1 [Lapatinib] (partner 2 µM)
Outline: as §1

AZD1208 + AZD7762 = compound: N[C@@H]1CCCN(c2c(/C=C3\SC(=O)NC3=O)cccc2-c2ccccc2)C1 [AZD1208] + NC(=O)Nc1cc(-c2cccc(F)c2)sc1C(=O)N[C@H]1CCCNC1 [AZD7762] (partner 0.2 µM)
Outline: as §1

Cell Line	relative viability (XMD14-99 + OSI-027; first compound 0.08 µM)	relative viability (XMD14-99 + OSI-027; first compound 0.8 µM)	relative viability (XMD14-99 + OSI-027; first compound 2.53 µM)	relative viability (XMD14-99 + OSI-027; first compound 8 µM)	relative viability (AZD1208 + Luminespib; first compound 0.08 µM)	relative viability (AZD1208 + Luminespib; first compound 0.253 µM)	relative viability (AZD1208 + Luminespib; first compound 0.8 µM)	relative viability (AZD1208 + Luminespib; first compound 2.53 µM)	relative viability (AZD1208 + Luminespib; first compound 8 µM)	relative viability (AZD1208 + Lapatinib; first compound 0.08 µM)	relative viability (AZD1208 + Lapatinib; first compound 0.253 µM)	relative viability (AZD1208 + Lapatinib; first compound 0.8 µM)	relative viability (AZD1208 + Lapatinib; first compound 2.53 µM)	relative viability (AZD1208 + Lapatinib; first compound 8 µM)	relative viability (AZD1208 + AZD7762; first compound 0.08 µM)	relative viability (AZD1208 + AZD7762; first compound 0.253 µM)	relative viability (AZD1208 + AZD7762; first compound 2.53 µM)	relative viability (AZD1208 + AZD7762; first compound 8 µM)	relative viability (AZD1208 + AZD7762; first compound 0.8 µM)
LK-2	0.19	0.182	0.162	0.179	0.17	0.187	0.2	0.184	0.17	0.738	0.616	0.63	0.39	0.447	0.307	0.167	0.11	0.144	–
LOU-NH91	0.744	0.7	0.73	0.63	0.34	0.342	0.365	0.313	0.322	0.727	0.704	0.662	0.703	0.583	0.74	0.714	0.684	0.667	0.71
LU99A	0.302	0.308	0.297	0.25	0.306	0.292	0.204	0.182	0.238	0.864	0.985	0.937	0.919	0.728	0.371	0.385	0.435	0.365	0.41
LXF-289	0.839	0.84	0.819	0.616	0.601	0.584	0.659	0.607	0.527	0.941	0.954	0.917	0.958	0.868	1.13	1.27	1.22	1.38	1.19
NCI-H23	0.699	0.616	0.615	0.496	0.238	0.218	–	0.202	0.24	1.06	1.22	0.945	0.98	0.735	0.245	0.251	0.228	0.29	0.243
NCI-H322M	0.56	0.581	0.492	0.372	0.784	0.767	0.794	0.803	0.88	0.574	0.568	0.507	0.578	0.56	0.627	0.545	0.53	0.552	–
NCI-H358	0.702	0.813	0.707	0.404	0.38	0.307	0.514	0.319	0.122	0.343	0.44	0.38	0.36	0.35	0.454	0.579	0.467	0.451	0.436
NCI-H460	0.626	0.626	0.646	0.269	0.0309	0.0217	0.0281	0.0375	0.0205	1.03	1.71	0.867	1.01	0.964	0.844	0.716	0.824	0.7	0.643
NCI-H596	0.675	0.901	0.609	0.643	0.912	1.19	0.999	1.05	0.79	1.05	1.1	0.967	0.984	0.835	1.17	1.07	1.01	0.666	1.01
NCI-H647	0.621	0.71	0.746	0.605	0.266	0.16	0.294	0.154	0.146	1.04	1.58	1.04	0.97	0.742	0.638	0.547	0.378	0.497	0.466
NCI-H650	0.544	0.58	0.464	0.42	0.865	0.768	0.789	0.757	0.819	1.06	0.771	1.06	0.648	0.817	1.05	1.09	0.833	0.871	0.795
NCI-H727	0.617	0.493	0.584	0.383	0.362	0.384	0.431	0.42	0.458	0.597	0.754	0.755	0.672	0.59	0.586	0.708	0.441	0.518	0.502
NCI-H838	0.481	0.403	0.356	0.298	0.294	0.211	0.252	0.327	0.22	0.988	1.17	0.856	0.936	0.86	0.931	1.02	0.993	1.01	0.887
NCI-H1355	0.395	0.367	0.337	0.292	0.708	0.598	0.611	0.699	0.525	1.04	0.995	0.777	1.09	0.71	0.75	0.836	0.732	0.628	0.686
NCI-H1395	0.687	0.639	0.654	0.584	0.705	0.784	0.608	0.539	0.553	1.12	0.918	0.945	1.1	0.812	0.39	0.401	0.448	0.367	0.377
NCI-H1437	0.892	0.842	0.804	0.68	1.13	1.17	1.2	1.24	1.22	0.833	1.04	0.69	0.775	0.691	1.18	1.13	1.09	1.05	1.06
NCI-H1651	0.815	0.691	0.622	0.531	0.902	0.977	0.848	0.795	0.568	0.805	0.784	0.717	0.643	0.62	0.458	0.54	0.439	0.472	–

Cell Line	relative viability (XMD14-99 + OSI-027; first compound 0.08 µM)	relative viability (XMD14-99 + OSI-027; first compound 0.8 µM)	relative viability (XMD14-99 + OSI-027; first compound 2.53 µM)	relative viability (XMD14-99 + OSI-027; first compound 8 µM)	relative viability (AZD1208 + Luminespib; first compound 0.08 µM)	relative viability (AZD1208 + Luminespib; first compound 0.253 µM)	relative viability (AZD1208 + Luminespib; first compound 0.8 µM)	relative viability (AZD1208 + Luminespib; first compound 2.53 µM)	relative viability (AZD1208 + Luminespib; first compound 8 µM)	relative viability (AZD1208 + Lapatinib; first compound 0.08 µM)	relative viability (AZD1208 + Lapatinib; first compound 0.253 µM)	relative viability (AZD1208 + Lapatinib; first compound 0.8 µM)	relative viability (AZD1208 + Lapatinib; first compound 2.53 µM)	relative viability (AZD1208 + Lapatinib; first compound 8 µM)	relative viability (AZD1208 + AZD7762; first compound 0.08 µM)	relative viability (AZD1208 + AZD7762; first compound 0.253 µM)	relative viability (AZD1208 + AZD7762; first compound 2.53 µM)	relative viability (AZD1208 + AZD7762; first compound 8 µM)	relative viability (AZD1208 + AZD7762; first compound 0.8 µM)
NCI-H1666	0.881	0.731	0.799	0.651	0.977	1.07	0.911	1	1.01	0.442	0.574	0.452	0.389	0.456	0.953	0.888	0.856	0.937	0.762
NCI-H1734	0.556	0.524	0.55	0.437	0.18	0.197	0.187	0.159	0.168	1.01	1.06	1.01	0.822	0.627	0.499	0.543	0.465	0.425	0.469
NCI-H1755	0.709	0.712	0.668	0.517	0.357	0.282	0.494	0.565	0.269	1.05	1.09	1.01	0.978	0.848	0.509	0.577	0.446	0.448	0.455
NCI-H1792	0.71	0.686	0.657	0.413	0.407	0.437	0.358	0.394	0.284	0.874	0.999	0.885	0.908	0.757	0.815	0.739	0.593	0.56	–
NCI-H1793	0.269	0.26	0.232	0.199	0.181	0.17	0.14	0.176	0.152	0.563	0.982	0.629	0.678	0.58	0.599	0.611	0.482	0.401	0.403
NCI-H1915	0.629	0.548	0.487	0.415	0.768	0.811	0.709	0.677	0.678	0.985	1.08	1.02	0.962	0.977	0.642	0.76	0.778	0.673	0.766
NCI-H1944	0.382	0.44	0.358	0.278	0.765	0.711	0.548	0.557	0.346	0.8	0.788	0.708	0.712	0.484	0.494	0.693	0.5	0.395	0.442
NCI-H1975	0.825	0.822	0.653	0.535	0.235	0.296	0.2	0.228	0.18	0.916	1.1	0.838	0.893	1.07	0.746	0.784	0.746	0.642	0.691
NCI-H1993	0.575	0.555	0.53	0.53	0.522	0.561	0.692	0.566	0.523	–	0.749	0.689	0.794	0.75	0.679	0.654	0.757	0.579	0.629
NCI-H2085	0.725	0.815	0.624	0.42	0.439	0.388	0.427	0.461	0.381	0.768	0.862	0.7	0.687	0.726	1	1.13	0.892	1.04	0.911
NCI-H2087	0.524	0.487	0.45	0.299	0.166	0.145	0.14	0.141	0.171	1.11	1.32	1.13	1.47	0.9	1.29	1.45	1.46	1.32	1.35
NCI-H2126	0.666	0.66	0.669	0.432	0.9	0.924	0.848	0.799	0.858	0.796	0.689	0.63	0.691	0.525	1.03	1.08	0.996	0.928	1.02
NCI-H2170	0.709	0.772	0.65	0.621	0.65	0.656	0.632	0.512	0.321	0.263	0.257	0.257	0.265	0.299	0.911	0.923	0.796	0.424	0.821
NCI-H2347	0.401	0.349	0.378	0.276	0.416	0.625	0.415	0.371	0.306	1.09	1.11	0.896	0.843	0.97	0.835	0.747	0.764	0.781	0.72
NCI-H2405	0.593	0.606	0.607	0.5	0.652	0.464	0.47	0.455	0.517	1.12	1.05	0.984	1.04	0.841	0.676	0.636	0.705	0.629	0.699
NCI-H3122	0.815	0.811	0.623	0.163	0.0933	0.129	0.0763	0.0991	0.0841	1.08	0.984	1	1.05	1.15	1.07	1.04	1.08	0.894	0.952
PC-3 [JPC-3]	0.769	0.701	0.638	0.541	0.668	0.7	0.706	0.693	0.588	0.424	0.412	0.451	0.413	0.389	1.03	0.89	0.793	0.823	0.692
